Laboratory results published in US4758551A (priority 1986, dated 1988).
Numbered stars: 1 amine (or outer) side, 2 acyl side, 3 side chain; on linkers, the order of the positions; unused ones are H or OH. Peptide text beside a SMILES is read from it. γGlu = O=C(O)[C@H](CCC(=O)[*:2])N[*:1]

Legend:
Male Swiss Webster mice [1] = assay: Induction of glutathionuria by gamma-glutamyl compounds in mice (urinary glutathione); format: in vivo; conditions: for Urinary GSH: subcutaneous, 200 mM neutral solution, dose 4 mM per kilogram of body weight, urine collected for 1 hour
Experimental: Male Swiss Webster mice (20-27 g) were obtained from Taconic Farms (Germantown, N.Y.) and Hilltop Lab Animals (Scottsdale, Pa.).
(§1) The mice were fed ad libitum. Their urinary bladders were emptied by gentle abdominal pressure prior to subcutaneous injection of the gamma-glutamyl amino acids and urine was collected at 15 minute intervals for 1 hour in a tube containing 5 μl of 50% (w/v) 5-sulfosalicyclic acid. Elevated plasma glutathione levels were occasionally found after moderate abdominal pressure was applied to mice. For this reason, studies of urinary and plasma glutathione levels were carried out on different groups of mice.
(§2) Plasma, kidneys and livers were obtained and processed by well known means (see Anderson, M. E. et al, J. Biol. Chem. 255:9530-9533 (1980) and Anderson, M. E. et al, Methods Enzymol. 113:548-555 (1986)) and the concentration of glutathione therein was determined by the GSSG reductase-DTNB recycling assay (see Anderson, M. E. et al, Methods Enzymol. 113:548-555 (1986), Tietze, F., Analytical Biochem. 27:502-522 (1969) and Owens, C. et al, Biochem. J. 94:705-711 (1965)).
The urine samples were treated with 5mM dithiothreitol (pH 7.0) for 1 hour followed by derivatization with 2-vinylpyridine (see Griffith, O. W., Analytical Biochem. 106:207-212 (1980)). The derivatized samples were chromatographed on the amino acid analyzer using lithium citrate buffers (see Benson, J. V. et al, Anal. Biochem. 18:228-240 (1967)). The elution times for the vinylpyridine derivatives of gamma-glutamyl glutathione, gamma-glutamylcysteine, glutathione, cysteinylglycine and cysteine were 120, 163, 165, 220 and 235 minutes, respectively.
*The mice were injected subcutaneously with a 200 mM neutral solution of
the indicated amino acid (dose, 4 mM per kilogram of body weight) or with
an equivalent volume of saline. Urine was collected for 1 hour.

[2] = biological target: T1, purified rat kidney gamma-glutamyl transpeptidase (Rattus norvegicus, UniProt P07314); assay: Gamma-glutamyl transpeptidase activity assay with L-gamma-glutamyl-p-nitroanilide (apparent Khi, Dixon plot); format: biochemical
T1 construct: Highly purified rate kidney gamma-glutamyl transpeptidase was prepared by well known means; from tissue; host or cells: rat kidney
T1 sequence (P07314 1-379 limits assumed): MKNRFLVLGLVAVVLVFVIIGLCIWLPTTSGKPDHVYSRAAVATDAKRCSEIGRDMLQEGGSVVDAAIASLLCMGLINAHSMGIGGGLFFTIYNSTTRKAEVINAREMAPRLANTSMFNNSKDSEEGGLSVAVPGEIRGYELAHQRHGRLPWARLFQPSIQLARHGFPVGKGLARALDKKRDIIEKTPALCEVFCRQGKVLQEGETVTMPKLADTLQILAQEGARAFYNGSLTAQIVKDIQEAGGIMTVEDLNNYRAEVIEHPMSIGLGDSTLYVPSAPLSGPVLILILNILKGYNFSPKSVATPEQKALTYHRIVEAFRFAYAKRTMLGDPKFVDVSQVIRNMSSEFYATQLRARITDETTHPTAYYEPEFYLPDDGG
T1 sequence (P07314 380-568 limits assumed): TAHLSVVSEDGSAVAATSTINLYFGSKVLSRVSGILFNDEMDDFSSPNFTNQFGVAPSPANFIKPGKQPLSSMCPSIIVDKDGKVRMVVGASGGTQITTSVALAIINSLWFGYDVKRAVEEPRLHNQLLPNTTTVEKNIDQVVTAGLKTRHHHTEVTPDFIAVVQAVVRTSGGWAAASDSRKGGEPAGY
Experimental: Highly purified rate kidney gamma-glutamyl transpeptidase was prepared by well known means (see Tate, S. S. et al, Methods Enzymol. 113:400-419 (1986)). Bovine and porcine gamma-glutamyl transpeptidase can be obtained from Sigma Chemical Co. (St. Louis, Mo.).
Gamma-glutamyl transpeptidase activity was assayed using L-gamma-glutamyl-p-nitroanilide and the rate of formation of p-nitroaniline at 405 nm at 37° C. was measured (see Orlowski, M. et al, Biochim. Biophys. Acta 73:679-681 (1973)). The 1 ml final volume enzyme reaction mixture employed contained 40 mM Tris-HCl (pH 7.5), 30 or 60 μM L-gamma-glutamyl-p-nitroanilide, 30 or 150 μM gamma-glutamyl amino acid and 0.115 units gamma-glutamyl transpeptidase. Two different concentrations of substrate were employed for kinetic analyses. The reaction was initiated by adding gamma-glutamyl transpeptidase. The absorbance scale was 0.02 or 0.05 to insure that initial rates were obtained. The apparent hydrolysis Ki (Khi) values were determined from a Dixon plot and normalized to the apparent Km value for 6 μM L-gamma-glutamyl-p-nitroanilide (see Thompson, G. A. et al, Biochem. Biophys, Res. Commun. 71:32-36 (1976)).
The values for the apparent Khi for a number of gamma-glutamyl amino acids using purified rat kidney gamma-glutamyl transpeptidase are shown in the Figure. […]

[3] = biological target: T1, purified rat kidney gamma-glutamyl transpeptidase; conditions: free amino acids (Tate 1974); cited from earlier work
Male Swiss Webster mice [4] = conditions: similar protocol (Griffith 1979); cited from earlier work
Male Swiss Webster mice [5] = conditions: cited from earlier work
mice = conditions: cited from earlier work
[6] = In vivo conversion of the administered gamma-glutamyl compound
Text: The values for the apparent Khi for a number of gamma-glutamyl amino acids using purified rat kidney gamma-glutamyl transpeptidase are shown in the Figure. These values were plotted against the urinary glutathione obtained in the in vivo studies and a fairly close correlation was found. That is, the apparent affinity of gamma-glutamyl transpeptidase or gamma-glutamyl amino acid substrates varies over about a 6-fold range. In contrast, the affinity for the corresponding free amino acids varies over a range of several hundred (see Tate, S. S. et al, J. Biol. Chem. 249:7593-7602 (1974)).

Male Swiss Webster mice [7] = assay: Glutathione levels of kidney, liver and blood plasma of mice after administration; format: in vivo; conditions: experimental period 1 hour
Experimental: as §1, §2

[8] = mice, after administration of the hydrazide

| SMILES | Urinary GSH (Male Swiss Webster mice [1]) [mM] | also measured |
| --- | --- | --- |
| NC(=O)CC[C@H](N)C(=O)O [L-glutamine, L-(and D-)glutamine, reference compound] | < 0.03 | induction of glutathionuria (Male Swiss Webster mice [1]): ineffective; affinity for / interaction with gamma-glutamyl transpeptidase [2]: very poor gamma-glutamyl substrate |
| N[C@@H](CCC(=O)N[C@@H](CSSC[C@H](NC(=O)CC[C@H](N)C(=O)O)C(=O)O)C(=O)O)C(=O)O [L-Gamma-Glu-- L-(Cys)2, L-Gamma-Glu-L-(Cys)2] | 2.63 ± 0.33 | – |
| N[C@@H](CCC(=O)O)C(=O)N[C@@H](Cc1ccc(O)cc1)C(=O)O [L-glu-L-tyr, reference compound] (H-Glu-Tyr-OH) | < 0.03 | – |
| NC(=O)CC[C@H](NC(=O)CC[C@H](N)C(=O)O)C(=O)O [L-Gamma-Glu-- L-Gln, L-Gamma-Glu-L-Gln] | 1.17 ± 0.55 | – |
| N[C@@H](CCC(=O)N[C@@H](Cc1ccc(O)cc1)C(=O)O)C(=O)O [L-Gamma-Glu-- L-Tyr, L-Gamma-Glu-L-Tyr] | 3.19 ± 0.80 | – |
| CSC[C@H](NC(=O)CC[C@H](N)C(=O)O)C(=O)NCC(=O)O [S--Methyl glutathione] | 5.21 ± 1.30 | – |
| N[C@@H](CCC(=O)NCC(=O)O)C(=O)O [L-Gamma-Glu-- Gly, L-Gamma-Glu-Gly] | 2.67 ± 0.40 | – |
| C[C@H](NC(=O)CC[C@H](N)C(=O)O)C(=O)O [L-Gamma-Glu-- L-Ala, L-Gamma-Glu-L-Ala] | 5.69 ± 1.26 | gamma-glutamyl glutathione in the urine (Male Swiss Webster mice [1]): significant amounts; affinity for / interaction with gamma-glutamyl transpeptidase [2]: much higher affinity |
| NCCCC[C@H](N)C(=O)O [lysine] | – | acceptor substrate of gamma-glutamyl transpeptidase [3]: extremely poor acceptor substrates |
| CC[C@H](C)[C@H](NC(=O)CC[C@H](N)C(=O)O)C(=O)O [L-Gamma-Glu-- L-Ile, L-Gamma-Glu-L-Ile] | 1.00 ± 0.10 | – |
| NC(CCC(=O)NNc1ccccc1C(=O)O)C(=O)O [L-gamma-glutamyl-(o-carboxy)phenylhydrazide] | – | glutathione found in the urine (Male Swiss Webster mice [4]): 3.6 to 5.6 mM; plasma glutathione levels (Male Swiss Webster mice [5]; Griffith 1979): marked increases; decrease in kidney glutathione levels (Male Swiss Webster mice [5]; [8]): ~30%; decrease in liver glutathione levels (Male Swiss Webster mice [5]; [8]): ~13% |
| NNc1ccccc1C(=O)O [o-carboxyphenylhydrazine] | – | fatal dose (mice): more than 2 mM per kilogram of body weight |
| NCCCC[C@H](NC(=O)[C@@H](N)CCC(=O)O)C(=O)O [L-glu-L-(α )-lys, reference compound] (H-Glu-Lys-OH) | < 0.03 | – |
| C[C@H](NC(=O)[C@@H](N)CCC(=O)O)C(=O)O [L-glu-L-ala, reference compound] (H-Glu-Ala-OH) | < 0.03 | – |
| N[C@@H](CCC(=O)N[C@@H](CSSC[C@H](NC(=O)CC[C@H](N)C(=O)O)C(=O)O)C(=O)O)C(=O)O [(L-Gamma-Glu-- L-Cys)2, (L-gamma-Glu-L-Cys)2] | 5.77 ± 1.05 | Urinary GSH (Male Swiss Webster mice [1]; listed as gamma-glutamylcysteine disulfide): about 6 mM |
| CC(C)[C@H](NC(=O)[C@@H](N)CCC(=O)O)C(=O)O [L-glu-L-val, reference compound] (H-Glu-Val-OH) | < 0.03 | – |
| C[C@H](NC(=O)CC[C@H](NC(=O)CC[C@H](N)C(=O)O)C(=O)O)C(=O)O [L-Gamma-Glu-- L-Gamma-Glu-- L-Ala, L-Gamma-Glu-L-Gamma-Glu-L-Ala] | 5.07 ± 0.73 | induction of glutathionuria (Male Swiss Webster mice [1]): induced glutathionuria; in vivo conversion [6]: rapidly converted in vivo to gamma-glutamyl alanine |
| CC(C)[C@H](N)C(=O)O [valine] | – | acceptor substrate of gamma-glutamyl transpeptidase [3]: extremely poor acceptor substrates |
| CC[C@H](NC(=O)CC[C@H](N)C(=O)O)C(=O)O | 1.52 ± 0.38 | – |
| CC(C)[C@H](NC(=O)CC[C@H](N)C(=O)O)C(=O)O [L-Gamma-Glu-- L-Val, L-Gamma-Glu-L-Val] | 0.49 ± 0.25 | – |
| N[C@@H](CCCCNC(=O)CC[C@H](N)C(=O)O)C(=O)O [L-Gamma-- ε-L-Lys, L-Gamma-Glu-ε-L-Lys] | 0.77 ± 0.17 | – |
| N[C@@H](CCC(=O)N[C@@H](CC(=O)O)C(=O)O)C(=O)O [L-Gamma-Glu-- L-Asp, L-Gamma-Glu-L-Asp] | 0.26 ± 0.10 | – |
| N[C@@H](CCC(=O)NCC(=O)NCC(=O)O)C(=O)O [L-Gamma-Glu-- Gly--Gly, L-Gamma-Glu-Gly-Gly] (γGlu-Gly-Gly-OH) | 3.29 ± 1.16 | gamma-glutamyl glutathione in the urine (Male Swiss Webster mice [1]): significant amounts; urinary gamma-glutamyl cysteine relative to urinary glutathione (Male Swiss Webster mice [1]; vinylpyridine derivative, amino acid analyzer): about 10% |
| CSCC[C@H](NC(=O)CC[C@@H](N)C(=O)O)C(=O)O [D-Gamma-Glu-- L-Met, D-Gamma-Glu-L-Met] | 0.18 ± 0.05 | – |
| CSCC[C@H](NC(=O)CC[C@H](N)C(=O)O)C(=O)O [L-Gamma-Glu-- L-Met, L-Gamma-Glu-L-Met] | 8.54 ± 0.99 | – |
| N[C@@H](CSSC[C@H](N)C(=O)O)C(=O)O [L-Cystine, reference compound] | < 0.03 | – |
| N[C@@H](CCC(=O)N[C@@H](CCC(=O)O)C(=O)O)C(=O)O [L-Gamma-Glu-- L-Glu, L-Gamma-Glu-L-Glu] | 5.28 ± 1.05 | – |
| CC(C)C[C@H](NC(=O)CC[C@H](N)C(=O)O)C(=O)O [L-Gamma-Glu-- L-Leu, L-Gamma-Glu-L-Leu] | 0.60 ± 0.07 | – |
| N[C@@H](CCC(=O)N[C@@H](CS)C(=O)O)C(=O)O [gamma-glutamylcysteine] | – | effect on kidney glutathione levels (Male Swiss Webster mice [5]; Anderson 1983): increases; effect on liver glutathione levels (Male Swiss Webster mice [7]): does not affect |
